From patent US10477864B2, “Microbiocidal quinoline (thio)carboxamide derivatives” (priority 2016, dated 2019)

Experiments:
[1] = system: Glomerella lagenarium (Colletotrichum lagenarium); assay: Glomerella lagenarium (Colletotrichum lagenarium) / liquid culture (anthracnose); assay type: cell-based; details: Colletotrichum orbiculare; read-out: control of Glomerella lagenarium
Fusarium culmorum [2] = assay: microbe, parasite or virus in culture; assay type: cell-based; details: read-out: control of Fusarium culmorum
Gaeumannomyces graminis = Gaeumannomyces graminis / liquid culture (take-all of cereals); assay type: cell-based; details: read-out: control of Gaeumannomyces graminis
Fusarium culmorum [3] = assay: whole plant or invertebrate; assay type: in vivo; details: in Triticum aestivum, read-out: control of Fusarium culmorum
Sclerotinia sclerotiorum = Sclerotinia sclerotiorum / liquid culture (cottony rot); details: 72 h, read-out: control of Sclerotinia sclerotiorum
Procedure: Sclerotinia sclerotiorum/Liquid Culture (Cottony Rot)
Mycelia fragments of a newly grown liquid culture of the fungus are directly mixed into nutrient broth (Vogels broth). After placing a (DMSO) solution of test compound into a microtiter plate (96-well format) the nutrient broth containing the fungal material is added. The test plates are incubated at 24° C. and the inhibition of growth is determined photometrically 3-4 days after application.

[4] = system: Botryotinia fuckeliana (Botrytis cinerea); assay: Botryotinia fuckeliana (Botrytis cinerea) / liquid culture (gray mould); assay type: cell-based; details: 72 h, read-out: control of Botryotinia fuckeliana
[5] = system: Magnaporthe grisea (Pyricularia oryzae); assay: microbe, parasite or virus in culture; assay type: cell-based; details: 72 h, read-out: control of Magnaporthe grisea
[6] = system: Monographella nivalis (Microdochium nivale); assay: Monographella nivalis (Microdochium nivale) / liquid culture (foot rot cereals); assay type: cell-based; details: 96 h, read-out: control of Monographella nivalis

SMILES	inhibition of growth at 200 ppm [1]	inhibition of growth at 200 ppm (Fusarium culmorum [2])	inhibition of growth at 200 ppm (Gaeumannomyces graminis)	pest or weed control at 200 ppm (Fusarium culmorum [3])	melting point	inhibition of growth at 20 ppm (Sclerotinia sclerotiorum)	inhibition of growth at 200 ppm [4]	inhibition of growth at 200 ppm [5]	inhibition of growth at 200 ppm [6]
CC(Cc1ccccc1)(CC(F)(F)F)NC(=O)c1cnc2c(F)cccc2c1 (stereo not drawn) [Compound E-39, N-(1-benzyl-3,3,3-trifluoro-1-methyl-propyl)-8-fluoro-quinoline-3-carboxamide]	≥ 80%	≥ 80%	≥ 80%	≥ 80%	158 to 160 °C	≥ 80%	≥ 80%	≥ 80%	–
Cc1cccc2cc(C(=O)NC(C)(Cc3ccccc3)CC(C)C)cnc12 (stereo not drawn) [Compound E-20, N-(1-benzyl-1,3-dimethyl-butyl)-8-methyl-quinoline-3-carboxamide]	≥ 80%	≥ 80%	≥ 80%	≥ 80%	132 to 133 °C	≥ 80%	≥ 80%	≥ 80%	≥ 80%
CC(C)CC(C)(Cc1ccccc1)NC(=O)c1cnc2c(Cl)cccc2c1 (stereo not drawn) [Compound E-14, N-(1-benzyl-1,3-dimethyl-butyl)-8-chloro-quinoline-3-carboxamide]	≥ 80%	≥ 80%	≥ 80%	–	147 to 148 °C	≥ 80%	≥ 80%	≥ 80%	≥ 80%
CC(C)C[C@](C)(Cc1ccccc1)NC(=O)c1cnc2c(F)cccc2c1 [Compound F-1, N-[(1R)-1-benzyl-1,3-dimethyl-butyl]-8-fluoro-quinoline-3-carboxamide]	≥ 80%	≥ 80%	≥ 80%	≥ 80%	–	≥ 80%	≥ 80%	≥ 80%	≥ 80%
C=C(C)C[C@](C)(Cc1ccccc1)NC(=O)c1cnc2c(F)cccc2c1 [Compound F-10, N-[(1R)-1-benzyl-1,3-dimethyl-but-3-enyl]-8-fluoro-quinoline-3-carboxamide]	≥ 80%	≥ 80%	≥ 80%	≥ 80%	–	≥ 80%	≥ 80%	–	≥ 80%
CC1(CC(C)(Cc2ccccc2)NC(=O)c2cnc3c(F)cccc3c2)CC1 (stereo not drawn) [Compound E-47, N-[1-benzyl-1-methyl-2-(1-methylcyclopropyl)ethyl]-8-fluoro-quinoline-3-carboxamide]	≥ 80%	≥ 80%	≥ 80%	–	126 to 129 °C	≥ 80%	≥ 80%	≥ 80%	–
C=C(C)CC(C)(Cc1ccccc1)NC(=O)c1cnc2ccccc2c1 (stereo not drawn) [Compound E-36, N-(1-benzyl-1,3-dimethyl-but-3-enyl)quinoline-3-carboxamide]	≥ 80%	≥ 80%	–	≥ 80%	99 to 103 °C	≥ 80%	≥ 80%	≥ 80%	≥ 80%
CC(C)CC(C)(Cc1ccc(Cl)cc1)NC(=O)c1cnc2c(F)cccc2c1 (stereo not drawn) [Compound E-25]	≥ 80%	≥ 80%	≥ 80%	≥ 80%	57 to 59 °C	≥ 80%	≥ 80%	≥ 80%	–
